# Source: US4732970A, “Antitumor amino acid and peptide derivatives of 1,4-bis(aminoalkyl and hydroxy-aminoalkyl)amino)-5,8-dihydroxyanthraquinones” (priority 1986, dated 1988)
# Tested on: lymphocytic leukemia P388
# Test: Lymphocytic Leukemia P388 Test
# Assay type: in vivo, BDF1 mice
# Conditions: for Median Survival: BDF1 mice; for T/C × 100 (%): ratio of survival time treated/control
# Procedure: The animals used were BDF1 mice, all of one sex, weighing a minimum of 18 g and all within a 3 g weight range. There were 5 or 6 mice per test group. The tumor transplant was by intraperitoneal injection of 0.5 ml of dilute ascitic fluid containing 10^6 cells of lymphocytic leukemia P388. The test compounds were administered intraperitoneally on days 1, 5 and 9 (relative to tumor inocu-lation) at various doses. The animals were weighed and survivors recorded on a regular basis for 60 days. The median survival time and the ratio of survival time for treated (T)/control (C) animals were calculated.
# [1] = dose 0.75 mg/kg intraperitoneally on days 1, 5 and 9
# [2] = dose 1.5 mg/kg intraperitoneally on days 1, 5 and 9
# [3] = dose 3 mg/kg intraperitoneally on days 1, 5 and 9
SMILES,Median Survival [1] [days],T/C × 100 (%) [1] [%],Median Survival [2] [days],T/C × 100 (%) [2] [%],Median Survival [3] [days],T/C × 100 (%) [3] [%]
"CC(C)(C)OC(=O)N[C@@H](CCC(=O)OCc1ccccc1)C(=O)NCCNc1ccc(NCCNC(=O)[C@H](CCC(=O)OCc2ccccc2)NC(=O)OC(C)(C)C)c2c1C(=O)c1c(O)ccc(O)c1C2=O (relative stereo) [Example 43, [S-(R*,R*)]-5,5'-(9,10-Dihydro-5,8-dihydroxy-9,10-dioxo-1,4-anthracenediyl)bis(imino-2,1-ethanediylimino)]bis[4-[[(1,1-dimethylethoxy)carbonvl]amino]-5-oxopentanoic acid]bis(phenylmethyl)ester]",16.5,150,17.0,155,18.0,164
"N[C@@H](CCC(=O)OCc1ccccc1)C(=O)NCCNc1ccc(NCCNC(=O)[C@@H](N)CCC(=O)OCc2ccccc2)c2c1C(=O)c1c(O)ccc(O)c1C2=O.O=C(O)C(F)(F)F.O=C(O)C(F)(F)F (relative stereo) [Example 44, [S-(R*,R*)]-5,5'-[(9,10-Dihydro-5,8-dihydroxy-9,10-dioxo-1,4-anthracenediyl)bis(imino-2,1-ethanediylimino)]bis[4-amino-5-oxopentanoic acid]bis(phenylmethyl)ester, bis(trifluoroacetate)]",18.0,164,19.5,177,24.0,218
"CC(C)(C)OC(=O)N[C@@H](CC(=O)OCc1ccccc1)C(=O)NCCNc1ccc(NCCNC(=O)[C@H](CC(=O)OCc2ccccc2)NC(=O)OC(C)(C)C)c2c1C(=O)c1c(O)ccc(O)c1C2=O (relative stereo) [Example 45, [S-(R*,R*)]-4,4'-[(9,10-Dihydro-5,8-dihydroxy-9,10-dioxo-1,4-anthracenediyl)bis(imino-2,1-ethanediylimino)]bis[3-[[(1,1-dimethylethoxy)carbonyl]amino]-4-oxobutanoic acid]bis(phenylmethyl)ester]",14.0,127,15.5,141,18.0,164
"N[C@@H](CC(=O)OCc1ccccc1)C(=O)NCCNc1ccc(NCCNC(=O)[C@@H](N)CC(=O)OCc2ccccc2)c2c1C(=O)c1c(O)ccc(O)c1C2=O.O=C(O)C(F)(F)F.O=C(O)C(F)(F)F (relative stereo) [Example 46, [S-(R*,R*)]-4,4'-[(9,10-Dihydro-5,8-dihydroxy-9,10-dioxo-1,4-anthracenediyl)bis(imino-2,1-ethanediylimino)]bis[3-amino-4-oxobutanoic acid]bis(phenylmethyl)ester, bis(trifluoroacetate)]",21.0,191,25.5,232,26.0,236
"CC(C)(C)OC(=O)CC[C@H](NC(=O)OCc1ccccc1)C(=O)NCCNc1ccc(NCCNC(=O)[C@H](CCC(=O)OC(C)(C)C)NC(=O)OCc2ccccc2)c2c1C(=O)c1c(O)ccc(O)c1C2=O (relative stereo) [Example 47, [S-(R*,R*)]-5,5'-[(9,10-Dihydro-5,8-dihydroxy-9,10-dioxo-1,4-anthracenediyl)bis(imino-2,1-ethanediylimino)]bis[5-oxo-4-[[(phenylmethoxy)carbonyl]amino]pentanoic acid], bis(1,1-dimethylethyl)ester]",15.0,136,17.0,155,16.5,150
